These results are taken from patent publication US9884843B2 (Peloton Therapeutics, Inc., priority 2013, dated 2018).

Read-outs that look alike come from different tables or passages of the source.

Test [1] concerns the target HIF-2α HIS TAG-PASB Domain (Homo sapiens, UniProt Q99814). Put plainly: biochemical. The test is classed as binding. From the text:
(§1) The term “scintillation proximity assay” (SPA) refers to a homogenous assay in which light is emitted when a radiolabeled ligand is brought into close proximity to a radiosensitive bead. The assay typically contains a target protein that contains a tag (e.g., His Tag, Glutathione S-transferase Tag). The tag on the protein is used to bind the target protein to the scintillation bead. Radiolabeled ligand (e.g., labeled with tritium) that binds to the protein is now in close proximity to the bead, and when the raidolabel (e.g., tritium) decays, the high energy particle hits the bead resulting in the emission of light that is detected by a detector, such as photomultiplier tube or CCD camera. When unlabeled ligands or compounds that bind to the protein are used in the assay, they displace the radiolabeled ligand, resulting in loss of signal.
(§2) The total assay volume was about 100 μL in the following configuration: 2-μL compound in DMSO, 88 μL buffer with protein and probe and 10 μL of SPA beads. […] To each compound, 88 μL of the buffer solution was then added. […] The percent inhibition was determined and IC50 values were calculated using the Dotmatics system based on the following equation: % inhibition=[(high control−sample)/(high control−low control)]×100.

The test system of another test is 786-O-Hif-Luc cells. Put plainly: Luciferase Assay (HIF responsive element reporter). The test is classed as cell-based. The conditions noted are these: 786-O-Hif-Luc cells, about 24 hours, read-out: Mean Luciferease EC50. The method, then: A pool of infected cells were then selected against 2 μg/mL of puromycin (P8833, Sigma) for 10 days followed by limited dilution to select single clones.
Each concentration was tested in triplicate. After about 24 hours, luciferase activity was determined using ONE-Glo Luciferase Assay Reagent (E6110, Promega) following the manufacturer's recommended procedure. EC50 were calculated by using Dotmatics software.

The test system of test [2] is HIF-2α HIS TAG-PASB Domain. Put plainly: biochemical. The test is classed as binding. The conditions noted are these: displacement of Compound 120 probe; mean; read-out: Mean SPA IC50.
Source text: as §1, §2

Where [3] appears, read: displacement of Compound 120 probe, mean, read-out: Mean SPA IC50.

Sequence of HIF-2α HIS TAG-PASB Domain (Homo sapiens, UniProt Q99814) (Q99814 whole entry, looked up, the tested form may be a part): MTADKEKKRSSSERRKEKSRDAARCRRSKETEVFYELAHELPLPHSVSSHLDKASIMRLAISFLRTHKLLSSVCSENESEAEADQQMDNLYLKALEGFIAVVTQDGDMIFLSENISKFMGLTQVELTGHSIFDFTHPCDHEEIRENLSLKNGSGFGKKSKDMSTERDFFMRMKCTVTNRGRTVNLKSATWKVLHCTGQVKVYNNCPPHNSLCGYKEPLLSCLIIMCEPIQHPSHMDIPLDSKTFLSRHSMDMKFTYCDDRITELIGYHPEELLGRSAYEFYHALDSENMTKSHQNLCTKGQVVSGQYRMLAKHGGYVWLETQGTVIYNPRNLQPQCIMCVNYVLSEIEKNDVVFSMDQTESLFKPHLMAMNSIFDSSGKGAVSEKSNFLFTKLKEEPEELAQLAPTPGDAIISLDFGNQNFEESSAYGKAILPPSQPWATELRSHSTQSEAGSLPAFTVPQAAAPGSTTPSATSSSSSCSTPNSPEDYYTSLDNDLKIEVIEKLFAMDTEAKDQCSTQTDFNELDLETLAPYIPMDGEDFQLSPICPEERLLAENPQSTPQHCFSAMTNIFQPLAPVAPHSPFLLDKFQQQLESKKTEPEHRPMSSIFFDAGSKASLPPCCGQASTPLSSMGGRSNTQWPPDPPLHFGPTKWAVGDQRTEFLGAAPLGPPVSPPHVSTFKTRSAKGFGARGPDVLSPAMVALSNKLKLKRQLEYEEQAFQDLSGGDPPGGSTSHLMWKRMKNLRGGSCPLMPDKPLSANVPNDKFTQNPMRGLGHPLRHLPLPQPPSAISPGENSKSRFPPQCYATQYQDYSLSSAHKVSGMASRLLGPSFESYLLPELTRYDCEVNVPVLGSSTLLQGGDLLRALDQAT

In turn, `N#Cc1c(Oc2cc(F)cc(F)c2)ccc2c1[C@@H](O)CS2(=O)=O` [Compound 68, (R)-5-(3,5-difluorophenoxy)-3-hydroxy-2,3-dihydrobenzo[b]thiophene-4-carbonitrile 1,1-dioxide] returned an IC50 in test [1] of 125 nM. The EC50 in the test on 786-O-Hif-Luc cells (24 h) was 370 nM. Consider `O=S1(=O)c2ccc(Oc3cc(F)cc(Cl)c3)c(Br)c2[C@H](O)C1(F)F` [Compound 59, (3S)-4-Bromo-5-(3-chloro-5-fluoro-phenoxy)-2,2-difluoro-1,1-dioxo-3H-benzothiophen-3-ol], for which, in test [1] (setting [3]), the IC50 stood at 60 nM. The concentration giving a half-maximal response (EC50) with 786-O-Hif-Luc cells turned out to be 170 nM. In the case of `O=S1(=O)c2ccc(Oc3cc(F)cc(Cl)c3)cc2C(O)C1(F)F` (stereo not shown) [Compound 16, 5-(3-Chloro-5-fluorophenoxy)-2,2-difluoro-3-hydroxy-2,3-dihydrobenzo[b]thiophene 1,1-dioxide], in test [2], the IC50 was 1880 nM.

`N=S1(=O)c2ccc(Oc3cc(F)cc(F)c3)c(Br)c2C(O)C1(F)F` (stereo not shown) [Compound 31, 4-Bromo-5-(3,5-difluorophenoxy)-2,2-difluoro-3-hydroxy-1-imino-2,3-dihydro-1H-1λ^4-benzo[b]thiophene 1-oxide]: in test [1] (setting [3]), the IC50 worked out at 4140 nM. The EC50 in the test on 786-O-Hif-Luc cells (24 h) is 540 nM. In the case of `NC1c2c(ccc(Oc3cc(F)cc(F)c3)c2Br)S(=O)(=O)C1(F)F` (stereo not shown) [Compound 30, 3-Amino-4-bromo-5-(3,5-difluorophenoxy)-2,2-difluoro-2,3-dihydrobenzo[b]thiophene 1,1-dioxide], in test [1] (setting [3]), the IC50 is less than 5 nM. In addition, the EC50 in the test with 786-O-Hif-Luc cells was 1700 nM. `N#Cc1c(Oc2cccc(F)c2)ccc2c1[C@@H](O)CS2(=O)=O` [Compound 76, (R)-5-(3-fluorophenoxy)-3-hydroxy-2,3-dihydrobenzo[b]thiophene-4-carbonitrile 1,1-dioxide]: in test [1] (setting [3]), the IC50 turned out to be 750 nM. In addition, in the test on 786-O-Hif-Luc cells (24 h), the EC50 is 490 nM. Turning to `CC1(C)C(O)c2c(ccc(Oc3cc(F)cc(Cl)c3)c2Br)S1(=O)=O` (stereo not shown) [Compound 60, 4-Bromo-5-(3-chloro-5-fluoro-phenoxy)-2,2-dimethyl-1,1-dioxo-3H-benzothiophen-3-ol], in test [2], the IC50 was 21900 nM. With `N#Cc1cc(Oc2ccc3c(c2C(F)F)[C@@H](O)C(F)(F)S3(=O)=O)ccc1F` [Compound 91, (R)-5-((4-(Difluoromethyl)-2,2-difluoro-3-hydroxy-1,1-dioxido-2,3-dihydrobenzo[b]thiophen-5-yl)oxy)-2-fluorobenzonitrile], the concentration for a half-maximal effect (EC50) in the test on 786-O-Hif-Luc cells (24 h) was 310 nM.

`N=S1(=O)c2ccc(Oc3cc(F)cc(F)c3)c(Br)c2C(O)C1(F)F` (stereo not shown) [Compound 32, 4-bromo-5-(3,5-difluorophenoxy)-2,2-difluoro-3-hydroxy-1-imino-2,3-dihydro-1H-1λ^4-benzo[b]thiophene 1-oxide]: the EC50 in the test with 786-O-Hif-Luc cells was found to be 290 nM. As to `N[C@@H]1c2c(ccc(Oc3cc(F)cc(Br)c3)c2Br)S(=O)(=O)C1(F)F` [Compound 116, (R)-3-Amino-4-bromo-5-(3-bromo-5-fluorophenoxy)-2,2-difluoro-2,3-dihydrobenzo[b]thiophene 1,1-dioxide], in the test on 786-O-Hif-Luc cells (24 h), the EC50 was found to be 800 nM.

`N#Cc1cc(F)cc(Oc2ccc3c(c2C#N)C(N)C(F)(F)S3(=O)=O)c1` (stereo not shown) [Compound 118, 3-Amino-5-(3-cyano-5-fluorophenoxy)-2,2-difluoro-2,3-dihydrobenzo[b]thiophene-4-carbonitrile 1,1-dioxide]: the IC50 in test [1] (setting [3]) is 1230 nM. Moreover, the concentration for a half-maximal effect (EC50) in the test with 786-O-Hif-Luc cells (24 h) came out at 4600 nM. With `CC1(O)c2c(ccc(Oc3cc(F)cc(C#N)c3)c2C#N)S(=O)(=O)C1(F)F` (stereo not shown) [Compound 105, 5-(3-Cyano-5-fluorophenoxy)-2,2-difluoro-3-hydroxy-3-methyl-2,3-dihydrobenzo[b]thiophene-4-carbonitrile 1,1-dioxide], in the test on 786-O-Hif-Luc cells (24 h), the concentration giving a half-maximal response (EC50) stood at 48 nM. Still for that read-out and setting: for `N#Cc1cc(F)cc(Oc2ccc3c(c2F)C(O)C(F)(F)S3(=O)=O)c1` (stereo not shown) [Compound 88, 3-Fluoro-5-((2,2,4-trifluoro-3-hydroxy-1,1-dioxido-2,3-dihydrobenzo[b]thiophen-5-yl)oxy)benzonitrile] the value was 880 nM.
